Patent US20040253259A1, “Biological compositions and methods for treatment of kidney cancer” (priority 2003, published 2004)

Assays:
Assay type in all cases: in vivo
[1] = system: complex cancer cells of kidney; assay: Wistar rat model of human kidney cancer, survival over 6 months (Example 9); details: for Number of live animals remaining in the groups after 30 days of treatment: 30 per group
Method: (§1) The following example illustrates the benefit of a biological composition of the invention in a Wistar rat model of human kidney cancer. The growth of the tumor in the rats was studied.
(§2) The biological composition comprising 10^8 cells per ml of activated and conditioned yeast cells of the strain Saccharomyces carlsbergensis Hansen strain AS2.189 was prepared by the methods described in Section 5.1 and subsections therein.
The animals were prepared in a similar manner as described in Section 8.1.
The rats injected with tumor cells were kept for 5 days and then were divided into 4 experimental groups of ten rats per group and one control group. The four experimental groups were triplicated (i.e., using a total of 120 rats in the experimental groups). In group 2AY, the rats received 0.8 ml of the biological composition once per day. In group 2NY, the rats received 0.8 ml of the untreated yeast cells once per day. In group 2VCR, the rats were injected intravenously with 3 mg of […] (VCR) per kg body weight per day. In group 2CK1, the rats received 0.8 ml of physiological saline once per day.
(§3) The rats received the biological compositions, untreated yeast cells, VCR or saline on the same day as the tumor cells were transplanted. The rats in group 2CK2 also started receiving saline on the same day as the other four groups. The biological compositions, untreated yeast cells and saline were administered orally by a feeding tube and the VCR by intravenous injection for 30 consecutive days. The rats were observed over 6 months from the day of tumor inoculation and survival was recorded. The weight of the rats and the weight of the tumor were determined by standard techniques.

[2] = system: complex cancer cells of kidney; assay: Wistar rat model of human kidney cancer, tumor growth (Example 8); details: tumor-bearing rats, 30 consecutive days of treatment, sacrificed on 31st day from tumor inoculation
Description: as §1
(§4) Complex cancer cells of kidney closely resembles the human kidney cancer pathology. See e.g., Modern Clinical Experimental Protocols, People's Republic of China Health Publishing House, 1997.
as §2
The animals used to generate the kidney cancer cells for the experiments were Wistar rats (obtainable from the Chinese Academy of Military Medical Sciences, Beijing, China) having an average body weight of about 180 to 200 gram. The complex cancer cells of kidney (obtainable from the Shanghai Medical University, Shanghai, China) were generated from a Wistar rat with kidney cancer that was induced by subcutaneous injection of bismaleimidohexane (BHM). […]
The rats received the biological compositions, untreated yeast cells, VCR or saline on the same day as the tumor cells were transplanted. […] The weight of the rats and the weight of the tumor were determined by standard techniques.

[3] = system: complex cancer cells of kidney; assay: Syrian hamster model of human kidney cancer, survival time over 6 months (Example 7); details: for Number of live animals remaining in the groups after 30 days of treatment: 30 per group
Method: The following example illustrates the benefit of a biological composition of the invention in a Syrian hamster model of human kidney cancer. The survival time of hamsters after tumor injection and treatment was studied.
as §2
The animals were prepared in a similar manner as described in Section 6.1.
The hamsters injected with tumor cells were immediately divided into 4 experimental groups of ten hamsters per group and one control group. The four experimental groups were triplicated (i.e., using a total of 120 hamsters in the experimental groups). In group 2AY, the hamsters received 0.5 ml of the biological composition once per day. In group 2NY, the hamsters received 0.5 ml of the untreated yeast cells once per day. In group 2FUDR, the hamsters were injected subcutaneously with 0.6 mg of fluoruridine (FUDR) per kg body weight per day. In group 2CK1, the hamsters received 0.5 ml of physiological saline once per day.
as §3, with “hamsters” for “rats”, “FUDR” for “VCR”, “subcutaneous” for “intravenous”

[4] = system: complex cancer cells of kidney; assay: Syrian hamster model of human kidney cancer, tumor growth (Example 6); details: tumor-bearing hamsters, 30 consecutive days of treatment, sacrificed on 31st day from tumor inoculation
Description: The following example illustrates the benefit of a biological composition of the invention in a Syrian hamster model of human kidney cancer. The growth of the tumor in the hamsters was studied. Detailed description of the use of Syrian hamster to study kidney cancer can be found in, e.g., Liehr et al., 1991, Carcinogenesis 12:385-9, which is incorporated herein by reference in its entirety.
as §4, §2
The animals used to generate the kidney cancer cells for the experiments were Syrian hamsters (obtainable from the Institute of Laboratory Animal Sciences, Chinese Academy of Medical Sciences, Beijing, China), an equal number of male and female, 5 to 6 months old, having an average body weight of 150 to 180 gram. […]
The hamsters received the biological compositions, untreated yeast cells, FUDR or saline on the same day as the tumor cells were transplanted. […] The weight of the hamsters and the weight of the tumor were determined by standard techniques.

[5] = surviving rats, observed over 6 months
[6] = surviving hamsters, observed over 6 months

CC[C@]1(O)C[C@@H]2CN(CCc3c([nH]c4ccccc34)[C@@](C(=O)OC)(c3cc4c(cc3OC)N(C)[C@H]3[C@@](O)(C(=O)OC)[C@H](OC(C)=O)[C@]5(CC)C=CCN6CC[C@]43[C@@H]65)C2)C1 [VCR, vinblastine]
Number of live animals remaining in the groups after 30 days of treatment ([1]; rats, 0 month after cessation of treatment): 30
Number of live animals remaining in the groups after 30 days of treatment ([1]; rats, 1 month after cessation of treatment): 30
Number of live animals remaining in the groups after 30 days of treatment ([1]; rats, 2 months after cessation of treatment): 30
Number of live animals remaining in the groups after 30 days of treatment ([1]; rats, 3 months after cessation of treatment): 22
Number of live animals remaining in the groups after 30 days of treatment ([1]; rats, 4 months after cessation of treatment): 13
Number of live animals remaining in the groups after 30 days of treatment ([1]; rats, 5 months after cessation of treatment): 0
Number of live animals remaining in the groups after 30 days of treatment ([1]; rats, 6 months after cessation of treatment): 0
survival outcome during the experiment ([1]; rats, observed over 6 months): all died
mean weight of rats and standard deviation [1, 5]: all animals dead
mean weight of tumor nodules and standard deviation [1, 5]: all animals dead
mean weight of rats and standard deviation [2]: 189.6 ± 2.5 g
mean weight of tumor nodules and standard deviation [2]: 3.7 ± 1.9 g

O=c1[nH]c(=O)n([C@H]2C[C@H](O)[C@@H](CO)O2)cc1F [FUDR, fluoruridine]
Number of live animals remaining in the groups after 30 days of treatment ([3]; hamsters, 0 month after cessation of treatment): 30
Number of live animals remaining in the groups after 30 days of treatment ([3]; hamsters, 1 month after cessation of treatment): 27
Number of live animals remaining in the groups after 30 days of treatment ([3]; hamsters, 2 months after cessation of treatment): 11
Number of live animals remaining in the groups after 30 days of treatment ([3]; hamsters, 3 months after cessation of treatment): 5
Number of live animals remaining in the groups after 30 days of treatment ([3]; hamsters, 4 months after cessation of treatment): 0
Number of live animals remaining in the groups after 30 days of treatment ([3]; hamsters, 5 months after cessation of treatment): 0
Number of live animals remaining in the groups after 30 days of treatment ([3]; hamsters, 6 months after cessation of treatment): 0
survival outcome during the experiment ([3]; hamsters, observed over 6 months): all died
mean weight of hamsters and standard deviation [3, 6]: all animals dead
mean weight of tumor nodules and standard deviation [3, 6]: all animals dead
mean weight of hamsters and standard deviation [4]: 116.7 ± 4.9 g
mean weight of tumor nodules and standard deviation [4]: 2.7 ± 1.2 mg
